Test results taken from patent publication US4725597A, “Bis(piperazinyl or homopiperazinyl)alkanes” (Boehringer Ingelheim Ltd., priority 1984, dated 1988).
Where a name gives a salt, the structure may show the parent alone.

What was measured:
guinea pig basophils = test: Inhibition of histamine release from guinea pig basophils, Procedure C; format: cell-based; conditions: Cavia porcellus, 1 h, ovalbumin-sensitized, 37° C., 60 minutes, read-out: In Vitro Inhibition of Histamine Release IC50, Procedure C
Experimental: C. Procedure for Determining Inhibition of Histamine Release from Guinea Pig Basophils 1. In Vivo Sensitization: Male Hartley guinea pigs (200-300 gms) are immunized on day 0 with two 0.05 ml intradermal injections of 200 μg ovalbumin. Sensitized basophils are available between days 13-25 post-sensitization. This mode of sensitization favors IgE response. 2. Separation of Leukocytes: The method of Lett-Brown et al., Int. Arch. Allergy, Appl. Immun. 64, 241 (1981) is used. Animals are anesthetized with ether and are bled via cardiac puncture with plastic syringes containing sufficient EDTA to provide a final concentration of 10 mM. One part of 3% gelatin in saline at 37° C. is mixed with two parts of blood in a 16×150 mm tube. The cells are allowed to sediment at a 30° angle for 45 minutes in a 37° C. water bath. The leukocyte-rich plasma is collected and centrifuged at 150×g for 30 minutes at room temperature. The pelleted cells are washed in Hepes-buffered saline (HG) containing 4 mM EDTA and resuspended in Hepes-buffered saline containing Mg^++ and Ca^++ (HGCM) at 4-5×10^6 cells/ml. 3. Reaction Mixture: The reaction is carried out in 12×75 mm plastic tubes and a total volume of 1.2 ml which includes 0.5 ml of antigen, 0.2 ml of drug solution at concentrations ranging from 10-1000 μM and 0.5 ml of prewashed cell suspension. The reaction mixture is incubated in a 37° C. shaking water bath for 60 minutes. Upon completion of the reaction, the tubes are centrifuged and the supernatants collected. The protein is removed from the supernatants by precipitation with 0.2 ml of 8% perchloric acid. 4. Histamine Assay: Histamine release is measured by the automated fluorometric method of Siraganian, supra. The concentration which causes a 50 percent inhibition of Histamine release is computed as in Part A.

[1] = tested on: human leukocytes (basophils); test: Inhibition of histamine release from human leukocytes (basophils), Procedure A; format: cell-based; conditions: Leukocyte, 1 h, rabbit anti-human IgE, 37° C., 60 minutes, (d) No response detected at highest dose indicated, read-out: In Vitro Inhibition of Histamine Release IC50, Procedure A
Experimental: A. Procedure for Determining Inhibition of Histamine Release from Human Leukocytes (Basophils) 1. Separation of Leukocytes: A modification of the method of L. Lichtenstein and A. Osler, J. Exp. Med. 120, 507 (1964) is used. Heparinized human blood (80-100 ml) is mixed with 20 ml of saline (0.2%) containing 0.6 gm of dextrose and 1.2 gm dextran in propylene centrifuge tubes. The mixture is kept at ambient temperature for 60-90 minutes to allow the separation of erythrocytes from the platelet-leukocyte-rich supernate. The supernate is removed and centrifuged for 8 minutes at 110×g in cold. The leukocyte pellet is washed twice with Tris buffer and finally suspended in 150-180 ml Tris-ACM buffer at 1-2×10^6 cells/ml. 2. Reaction Mixture: The reaction is carried out in 12×75 mm plastic tubes at a total volume of […]. The reaction medium includes 0.05 ml rabbit anti-human IgE (the antigen), 0.2 ml of the test compound in water at concentrations ranging from 10-100 μM, and 0.1 ml of the leukocyte suspension. The reaction mixture is incubated in a 37° C. shaking water bath for 60 minutes. Upon completion of the reaction, the tubes are centrifuged and the supernatants collected. The protein is removed from the supernatants by precipitation with 0.2 ml of 8% perchloric acid. 3. Histamine Assay: Histamine release is measured by the automated fluorometric method of W. Siraganian and W. Hook in Chapter 102 of the Manual of Clinical Immunology, 2nd Edition, edited by R. Rose and H. Friedman, published by the American Society for Microbiology, Washington, D.C. 1980. Percent inhibition is calculated as follows: [formula] The concentration which causes a 50 percent inhibition (IC50) of histamine release is interpolated from a plot of percent inhibition versus logarithm of drug concentration.

[2] = tested on: rat peritoneal mast cells; test: Inhibition of histamine release from rat peritoneal mast cells, Procedure B; format: cell-based; conditions: Mast cell, 1 h, sheep anti-rat IgE or ovalbumin, 37° C., 60 minutes, (d) No response detected at highest dose indicated, read-out: In Vitro Inhibition of Histamine Release IC50, Procedure B
Experimental: B. Procedure for Determining Inhibition of Histamine Release from Rat Peritoneal Mast Cells 1. Harvest of Peritoneal Mast Cells: After the rats are sacrificed with ether, 20 ml of Minimum Essential Medium (MEM) containing 20 units/ml heparin is injected into the peritoneum. The abdomen is massaged for one minute and the lavage fluid collected. The peritoneal cells are centrifuged at 1800 rpm for 8 minutes in cold. After two washes with Tris A buffer, the cells are resuspended in Tris ACM buffer at 2-4×10^6 cells/ml. 2. Reaction Mixture: The reaction is carried out in 12×75 mm plastic tubes at a total volume of 1.25 ml. The reaction mixture includes 0.5 ml (10-1000 μg) sheep anti-rat IgE or ovalbumin, 0.2 ml of the test compound in water at concentrations ranging from 10-1000 μM, […] phosphatidylserine solution (20-60 μg to each tube), and 0.5 ml of cell suspension. The reaction mixture is incubated in a 37° C. shaking water bath for 60 minutes. Upon completion of the reaction, the tubes are centrifuged and the supernatants collected. The protein is removed from the supernatants by precipitation with 0.2 ml of 8% perchloric acid. 3. Histamine Assay: Histamine release is measured by the automated fluorometric method of Siraganian, supra. The concentration which causes a 50% inhibition (IC50) of histamine release is computed as in Part A.

Solubility limit = conditions: pH 7

SMILES: Clc1ccc(CN2CCCN(CCCN3CCCN(Cc4ccc(Cl)cc4)CC3)CC2)cc1 [Example 28, 1,3-Bis[4-(4-chlorobenzyl)-1-homopiperazinyl]propane tetrahydrochloride]
- IC50 (guinea pig basophils): 2.3 µM
- IC50 [1]: 6 µM
- IC50 [2]: 9 µM

SMILES: Cl.Cl.Cl.Cl.Clc1ccc(CCCN2CCN(CCCN3CCN(CCCc4ccc(Cl)cc4)CC3)CC2)cc1.O [Example 24, 1,3 -Bis[4-(3-{4-chlorophenyl}propyl)-1-piperazinyl]propane tetrahydrochloride monohydrate]
- solubility (Solubility limit): 1000 µg/mL
- IC50 (guinea pig basophils): 8.9 µM
- IC50 [1]: 2 µM
- IC50 [2]: 2 µM

SMILES: Clc1ccc(CCN2CCN(CCCN3CCN(CCc4ccc(Cl)cc4)CC3)CC2)cc1 [Example 16, 1,3-Bis[4-(4-chlorophenethyl)-1-piperazinyl]propane]
- IC50 (guinea pig basophils): 12 µM
- IC50 [1]: 3 µM
- IC50 [2]: > 100 µM
